Source: patent publication US20050163737A1, “Deodorant cosmetic composition comprising a combination of zinc pidolate and an antiperspirant aluminum salt” (priority 2003, published 2005)

Assays:
[1] = Deodorant efficacy test: odor intensity of incubated underarm sweat, expert panel; design: species or system human; details: 24 hours at 37° C, vs control sweat
Method: Protocol of the Deodorant Efficacy Test
Collections of underarm sweat were taken in a sauna from 6 volunteers; the samples of individual sweat, were stored in ice for a few hours, and were at this point virtually odorless. They were then mixed together and divided into 1 ml aliquots. The active agents were added to these aliquots, which were then incubated in an oven at 37° C. After incubation for 24 hours, a panel of experts evaluated the intensity of the odor in comparison with a control sample: 1 ml of sweat incubated without agent.
The results were expressed as a percentage of variation of the intensity of the odor in comparison with the control sweat sample (mean of the percentages of variation at T24h).

[2] = cited from earlier work

Row | Molecule | % of Reduction in the Intensity of the Odor ([1]; 0.3 mg AM/ml of sweat) [%] | % of Reduction in the Intensity of the Odor ([1]; 0.1 mg AM/ml of sweat) [%] | % of Reduction in the Intensity of the Odor ([1]; 0.2 mg AM/ml of sweat (total)) [%] | % of Reduction in the Intensity of the Odor ([1]; 0.4 mg AM/ml of sweat (total)) [%] | Solubility in water [2]
1 | zinc ricinoleate [(C)] | −4 |  |  |  | 
2 | zinc pidolate [(A)] |  | −47 | −47 |  | 
3 | aluminum chlorohydrate [ACH] |  | −37 | −47 |  | 
4 | Oc1cc(Cl)ccc1Oc1ccc(Cl)cc1Cl [(B), 2,4,4′-trichloro-2′-hydroxydiphenyl ether] |  |  |  | −49 | insoluble
